Assay results published in ChEMBL document CHEMBL1201862, “PubChem BioAssay data set” (2004).
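1) Cells in 96-well plates. 2) Compound, 48 h, 5 concentrations. 3) Linear interpolation between surrounding doses. 4) Unreached endpoint = highest concentration. Abbreviation: GI50, concentration required for 50% inhibition of growth.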 The source made the active and inactive calls. Rule as the data show it: active = GI50 up to about 1.1 µM and inactive = higher.

Experiments:
Test in all cases: NCI anticancer screen, dose series, 48 h
SF-268 = tested on: SF-268
SK-MEL-5 = tested on: SK-MEL-5
MOLT-4 = tested on: MOLT-4
CAKI-1 = tested on: CAKI-1
SF-539 = tested on: SF-539
A498 = tested on: A498
OVCAR-5 = tested on: OVCAR-5
OVCAR-8 = tested on: OVCAR-8
HCT-15 = tested on: HCT-15
NCI-H460 = tested on: NCI-H460
UACC-62 = tested on: UACC-62
LXFL 529 = tested on: LXFL 529
UO-31 = tested on: UO-31
HCT-116 = tested on: HCT-116
SN12C = tested on: SN12C
T47D = tested on: T47D
NCI/ADR-RES = tested on: NCI/ADR-RES
DU-145 = tested on: DU-145
MDA-N = tested on: MDA-N
SR = tested on: SR

Row | Structure (SMILES) | GI50 (SF-268) | GI50 (SK-MEL-5) | GI50 (MOLT-4) | GI50 (CAKI-1) | GI50 (SF-539) | GI50 (A498) | GI50 (OVCAR-5) | GI50 (OVCAR-8) | GI50 (HCT-15) [µM] | GI50 (NCI-H460) | GI50 (UACC-62) | GI50 (LXFL 529) | GI50 (UO-31) | GI50 (HCT-116) | GI50 (SN12C) | GI50 (T47D) | GI50 (NCI/ADR-RES) | GI50 (DU-145) | GI50 (MDA-N) | GI50 (SR)
1 | CCc1cc(Cc2ccc(C)c(NC(=O)C(=O)C3C(=O)NC(=O)NC3=O)c2CC)cc(C)c1NC(=O)C(=O)C1C(=O)NC(=O)NC1=O | > 100 µM (inactive) | > 100 µM (inactive) | 93.5 µM (inactive) | 41.8 µM (inactive) | > 100 µM (inactive) | > 100 µM (inactive) | > 100 µM (inactive) | > 100 µM (inactive) | > 100 | > 100 µM (inactive) | > 100 µM (inactive) | > 100 µM (inactive) | > 100 µM (inactive) | > 100 µM (inactive) |  |  |  |  |  | 
2 | CC(=O)Nc1ccc(C(=O)NN2C(=O)C(Cl)C2c2ccc(O)cc2)cc1 (centres undefined) | 64.1 µM (inactive) | > 100 µM (inactive) | > 100 µM (inactive) | > 100 µM (inactive) | > 100 µM (inactive) | > 100 µM (inactive) | > 100 µM (inactive) | 77.3 µM (inactive) | > 100 | > 100 µM (inactive) | > 100 µM (inactive) | > 100 µM (inactive) | > 100 µM (inactive) | > 100 µM (inactive) | > 100 µM (inactive) |  |  |  |  | 
3 | NCCC1(N)CCNCC1 | > 100 µM (inactive) | > 100 µM (inactive) | > 100 µM (inactive) | > 100 µM (inactive) | > 100 µM (inactive) | > 100 µM (inactive) | > 100 µM (inactive) | > 100 µM (inactive) | > 100 | > 100 µM (inactive) | > 100 µM (inactive) |  | > 100 µM (inactive) | > 100 µM (inactive) | > 100 µM (inactive) | > 100 µM (inactive) | > 100 µM (inactive) | > 100 µM (inactive) | > 100 µM (inactive) | > 100 µM (inactive)
4 | COC(=O)C1(Cc2ccc3c(c2)CCC3)Cc2ccccc2C1=O (centres undefined) | 22.1 µM (inactive) | 4.3 µM (inactive) | 4.45 µM (inactive) | 19.6 µM (inactive) | 16 µM (inactive) | 18.4 µM (inactive) | 26.4 µM (inactive) | 26.1 µM (inactive) | 6.76 | 28.4 µM (inactive) | 8.43 µM (inactive) |  | 17.1 µM (inactive) | 7.8 µM (inactive) | 27.6 µM (inactive) | 19.3 µM (inactive) | 7.06 µM (inactive) | 16.6 µM (inactive) | 2.72 µM (inactive) | 6.47 µM (inactive)
5 | O=C(N/N=C/c1ccc2c(c1)OCO2)Nc1ccccc1Cl | 3.76 µM (inactive) | 1.35 µM (inactive) | 0.462 µM (active) | 4.18 µM (inactive) | 0.918 µM (active) | 1.95 µM (inactive) | 8 µM (inactive) | 2.56 µM (inactive) | 0.418 | 0.65 µM (active) | 0.762 µM (active) |  | 4.25 µM (inactive) | 0.861 µM (active) | 0.847 µM (active) | 2.08 µM (inactive) | 0.335 µM (active) | 2.02 µM (inactive) | 0.161 µM (active) | 0.22 µM (active)
6 | O=[N+]([O-])c1ccc2nc(Nc3ccccc3)c(Nc3ccccc3)nc2c1 | 1.62 µM (inactive) | 1.49 µM (inactive) | 1.55 µM (inactive) | 0.802 µM (active) | 1.58 µM (inactive) | 0.929 µM (active) | 2.64 µM (inactive) | 1.03 µM (active) | 0.753 | 0.42 µM (active) | 1.02 µM (active) |  | 1.21 µM (inactive) | 0.555 µM (active) | 1.18 µM (inactive) | 2.63 µM (inactive) | 1.46 µM (inactive) | 1.77 µM (inactive) | 0.553 µM (active) | 0.489 µM (active)
7 | COC(=O)[C@H](CC(C)C)NC(=O)[C@H](Cc1ccccc1)N1CC2C=CC1C2 (some centres undefined) | > 100 µM (inactive) | > 100 µM (inactive) | > 100 µM (inactive) | > 100 µM (inactive) | > 100 µM (inactive) | > 100 µM (inactive) | > 100 µM (inactive) | > 100 µM (inactive) | > 100 | > 100 µM (inactive) | > 100 µM (inactive) | > 100 µM (inactive) | > 100 µM (inactive) |  | > 100 µM (inactive) |  |  |  |  | 
8 | CC1=C(C(N)=O)C(c2ccncc2)C(C#N)=C2SCC(=O)N12 (centres undefined) | > 100 µM (inactive) | > 100 µM (inactive) | > 100 µM (inactive) | > 100 µM (inactive) | > 100 µM (inactive) | > 100 µM (inactive) | > 100 µM (inactive) | > 100 µM (inactive) | > 100 | > 100 µM (inactive) | > 100 µM (inactive) |  | > 100 µM (inactive) | > 100 µM (inactive) | > 100 µM (inactive) | > 100 µM (inactive) | > 100 µM (inactive) | > 100 µM (inactive) | > 100 µM (inactive) | > 100 µM (inactive)
9 | CSc1nncc2[nH]cnc12 | > 100 µM (inactive) | > 100 µM (inactive) | > 100 µM (inactive) | > 100 µM (inactive) | > 100 µM (inactive) | > 100 µM (inactive) | > 100 µM (inactive) | > 100 µM (inactive) | > 100 | > 100 µM (inactive) | > 100 µM (inactive) |  | > 100 µM (inactive) | > 100 µM (inactive) | > 100 µM (inactive) | > 100 µM (inactive) | > 100 µM (inactive) | > 100 µM (inactive) | > 100 µM (inactive) | > 100 µM (inactive)
10 | O=C1N/C(=N/N=C\C(O)C(O)C(O)C(O)CO)N/C1=C\c1ccc(Cl)cc1 (centres undefined) | 3.61 µM (inactive) | 17 µM (inactive) | 3.9 µM (inactive) | > 57.7 µM (inactive) | 0.332 µM (active) | 11.5 µM (inactive) | 19.5 µM (inactive) | 1.53 µM (inactive) | > 86.5 | 15.7 µM (inactive) | 0.571 µM (active) |  | 44.1 µM (inactive) | 9.59 µM (inactive) | 1.51 µM (inactive) | 3.25 µM (inactive) | > 100 µM (inactive) | 15.2 µM (inactive) | 0.968 µM (active) | 4.04 µM (inactive)
11 | S=c1sc2nc(Cl)nc(Cl)c2s1 | 14.8 µM (inactive) | 8.73 µM (inactive) | 0.822 µM (active) | 7.52 µM (inactive) | 20.6 µM (inactive) | 18 µM (inactive) | 15.7 µM (inactive) | 9.33 µM (inactive) | 13.2 | 14.2 µM (inactive) | 13 µM (inactive) |  | 11.1 µM (inactive) | 11.9 µM (inactive) | 14.5 µM (inactive) | 7.06 µM (inactive) | 11 µM (inactive) | 16 µM (inactive) | 7.98 µM (inactive) | 1.04 µM (active)
12 | Oc1ncc(Cl)c(O)n1 | > 100 µM (inactive) | > 100 µM (inactive) | > 100 µM (inactive) | > 100 µM (inactive) | > 100 µM (inactive) | > 100 µM (inactive) | > 100 µM (inactive) | > 100 µM (inactive) | > 100 | > 100 µM (inactive) | > 100 µM (inactive) |  | > 100 µM (inactive) | > 100 µM (inactive) | > 100 µM (inactive) | > 100 µM (inactive) | > 100 µM (inactive) | > 100 µM (inactive) | > 100 µM (inactive) | > 100 µM (inactive)
13 | COC(=O)CNC(=O)CCC(C)[C@H]1CCC2C3C(C[C@H](OC(C)=O)[C@@]21C)[C@@]1(C)CCC2(C[C@H]1C[C@H]3OC(C)=O)OOC1(CCCCC1)OO2 (some centres undefined) | 1.75 µM (inactive) | 2.63 µM (inactive) | 3.55 µM (inactive) | 2.02 µM (inactive) | 1.95 µM (inactive) | 17.2 µM (inactive) | 2.6 µM (inactive) | 1.82 µM (inactive) | 2.7 | 1.76 µM (inactive) | 9.12 µM (inactive) |  | 1.84 µM (inactive) | 2.73 µM (inactive) | 1.59 µM (inactive) | 2.58 µM (inactive) | 2.17 µM (inactive) | 2.34 µM (inactive) | 1.74 µM (inactive) | 1.24 µM (inactive)
14 | CCOC(=O)C1CCC(=O)N1C(=O)c1ccccc1Cl (centres undefined) | > 100 µM (inactive) | > 100 µM (inactive) | > 100 µM (inactive) | > 100 µM (inactive) | > 100 µM (inactive) | > 100 µM (inactive) | > 100 µM (inactive) | > 100 µM (inactive) | > 100 | > 100 µM (inactive) | 27.4 µM (inactive) |  | > 100 µM (inactive) | > 100 µM (inactive) | > 100 µM (inactive) | > 100 µM (inactive) | > 100 µM (inactive) | > 100 µM (inactive) | > 100 µM (inactive) | > 100 µM (inactive)
15 | CN(C)c1ccc(/C=C(/NC(=O)c2ccccc2)C(=O)Nc2ccccc2C(=O)O)cc1 | > 100 µM (inactive) | > 100 µM (inactive) | > 100 µM (inactive) | > 100 µM (inactive) | > 100 µM (inactive) | 57 µM (inactive) | > 100 µM (inactive) | > 100 µM (inactive) | > 100 | > 100 µM (inactive) | > 100 µM (inactive) |  | > 100 µM (inactive) | > 100 µM (inactive) | > 100 µM (inactive) | > 100 µM (inactive) | > 100 µM (inactive) | > 100 µM (inactive) | > 100 µM (inactive) | > 100 µM (inactive)
16 | COc1ccc2c(c1)C1(C=N2)CCN(C(C)=O)CC1 | 48 µM (inactive) | > 100 µM (inactive) | 82 µM (inactive) | > 100 µM (inactive) | > 100 µM (inactive) | > 100 µM (inactive) | > 100 µM (inactive) | > 100 µM (inactive) | > 100 | > 100 µM (inactive) | > 100 µM (inactive) | > 100 µM (inactive) |  | > 100 µM (inactive) |  |  |  |  |  | 
